Measured values from patent US20240327423A1, “A SERIES OF PYRROLE DERIVATIVES AND THEIR PREPARATION METHOD AND THERAPEUTIC USE” (SHENZHEN SUNGENING BIO-MEDICAL CO., LTD, priority 2020, published 2024).
≈ marks a conversion by molar mass, not a printed value.

Key:
[1] = tested on: Aspergillus fumigatus (ATCC MYA-4609/AF293/CBS 101355); assay: Measurement of minimum inhibitory concentration (MIC), AF293; type: cell-based; settings: CBS101355; Aspergillus fumigatus AF293, 35° C., 48 hours, RPMI1640; read-out: AF293: MIC
Protocol: (§1) New streaks are made with glycerol stock solution of the strains of Aspergillus fumigatus (ATCC MYA-4609/AF 293/CBS 101355) on Sabouraud's dextrose agar (SDA), incubate at 35° C. and a humidity of 40-70% for 72 hours. Other strains are processed as the same as AF293.
(§2) RPMI1640: one packet of RPMI1640 powder is dissolved in 1 L purified water and mixed well, add 0.165M MOPS, adjust the pH to 7.0, sterilize by filtration with 0.22 um membrane, and store at 4° C. for no more than 3 months.
(§3) Physiological saline: weigh 9 g of sodium chloride powder and dissolve in 1 L of purified water, and mixed well. Sterilize at 121° C. for 30 min, store at room temperature (RT) for no more than 1 week.
(§4) Dissolve the test compound and stock solution of one control compound with DMSO and obtain solutions at a concentration of 12.8 mg/mL
(§5) The maximum concentration of each compound is 0.8 mg/mL (e.g., 150 μL of dimethyl sulfoxide+10 uL of 12.8 mg/mL compound/control). Column 1 is filled with 40 μL of compound and columns 2 to 11 with 20 μL of dimethyl sulfoxide. Transfer 20 μL of compound from column 1 to column 2 to dilute the concentration. Repeat the above steps up to column 11 to give 2× serial dilutions.
(§6) 2 μL of the above 2× serial dilutions are injected into each hole of the corresponding test plate using a multichannel pipette.
(§7) Drop 5 ml of saline on the Aspergillus fumigatus SDA plate. The spores were carefully wiped off from the surface of the plate with an L-shaped coating rod. Then the suspension is transferred into a sterile tube. After shaking, let the tube stand for 5 to 10 minutes. Count the number of spores in the upper suspension with a hemocytometer and check the purity. Adjust the inoculum concentration to 0.2-2.5×10^4 spores/mL.
(§8) Inject 198 μL of diluted inoculum into each holes of the corresponding test plate using a multichannel pipette.
(§9) Incubate at 35° C. for 48 hours.
(§10) To facilitate scoring of the presence or absence of growth on the wall, a magnifying glass is used. The tested 96-well microplates were photographed and the optical density at 530 nm is read with an enzyme marker (Tecan Spark).

[2] = tested on: Aspergillus fumigatus (ATCC-204305); assay: Measurement of minimum inhibitory concentration (MIC), ATCC 204305; type: cell-based; settings: ATCC204305; Aspergillus fumigatus ATCC 204305, 35° C., 48 hours
Protocol: New streaks are made with glycerol stock solution of the strains of Aspergillus [NT] MYA-4609/AF 293/CBS 101355) on Sabouraud's dextrose agar (SDA), incubate at 35° C. and a humidity of 40-70% for 72 hours. Other strains are processed as the same as AF293. RPMI1640: one packet of RPMI1640 powder is dissolved in 1 L purified water and mixed well, add 0.165M MOPS, adjust the pH to 7.0, sterilize by filtration with 0.22 um membrane, and store at 4° C. for no more than 3 months. Physiological saline: weigh 9 g of sodium chloride powder and dissolve in 1 L of purified water, and mixed well. […] Dissolve the test compound and stock solution of one control compound with DMSO and obtain solutions at a concentration of 12.8 mg/mL The maximum concentration of each compound is 0.8 mg/mL (e.g., 150 μL of dimethyl sulfoxide+10 uL of 12.8 mg/mL compound/control). […] Repeat the above steps up to column 11 to give 2× serial dilutions. 2 μL of the above 2× serial dilutions are injected into each hole of the corresponding test plate using a multichannel pipette. Drop 5 ml of saline on the Aspergillus fumigatus SDA plate. The spores were carefully wiped off from the surface of the plate with an L-shaped coating rod. Then the suspension is transferred into a sterile tube. After shaking, let the tube stand for 5 to 10 minutes. Count the number of spores in the upper suspension with a hemocytometer and check the purity. Adjust the inoculum concentration to 0.2-2.5×10^4 spores/mL. Inject 198 μL of diluted inoculum into each holes of the corresponding test plate using a multichannel pipette. Incubate at 35° C. for 48 hours. […] To facilitate scoring of the presence or absence of growth on the wall, a magnifying glass is used. The tested 96-well microplates were photographed and the optical density at 530 nm is read with an enzyme marker (Tecan Spark).

[3] = tested on: Aspergillus flavus (ATCC 204304); assay: Measurement of minimum inhibitory concentration (MIC), ATCC 204304; type: cell-based; settings: ATCC204304; Aspergillus flavus ATCC 204304, 35° C., 48 hours
Protocol: as §1, §2, §3, §4, §5, §6, §7, §8, §9, §10

[4] = tested on: Aspergillus flavus (ATCC MYA-1004); assay: Measurement of minimum inhibitory concentration (MIC), ATCC MYA-1004; type: cell-based; settings: Aspergillus flavus ATCC MYA-1004, 35° C., 48 hours
Protocol: as §1, §2, §3, §4, §5, §6, §7, §8, §9, §10

[5] = Liver microsomal stability test, human; type: in vitro ADME; settings: Human liver microsomes; for CLint scaled / half-life: 0.5 mg/mL protein, 37° C., NADPH
Protocol: (§11) • 1: Add 10 μL of working solutions of test product or reference product and 80 μL of microsomal working solution (liver microsomal protein concentration of 0.5 mg/mL) to wells of TO, T5, T10, T20, T30, T60, and NCF60, and only microsomal working solution is added to the Blank60 wells. Then the samples of Blank60, T10, T20, T30 and T60, except for TO and NCF60, are placed in a water bath set at 37° C. and incubate for approximately 10 mins; • 2: Add 300 μL of termination solution (acetonitrile solution containing 200 ng/mL tolbutamide and 200 ng/mL labetalol) to Sample TO, followed by 10 ul of NADPH regeneration system working solution; • 3: After incubation of Blank60, T5, T10, T20, T30 and T60 on incubation plates, add 10 μL of NADPH regeneration system working solution to each sample well to start the reaction, and 10 uL of 100 mM potassium phosphate buffer is add to the NCF60 sample wells; • 4: After incubation for appropriate times (e.g., 5, 10, 20, 30 and 60 mins), 300 μL of termination solution is add to each sample well of test product and reference product on Blank60, T5, T10, T20, T30, T60 and NCF60 plates, respectively, to terminate the reaction. • 5: All sample plates are shaken well and centrifuged at 4000 rpm for 20 min, take 100 μL of the supernatant of the test product or reference product, dilute in 300 μL of pure water for LC-MS/MS analysis, respectively. • 6: Data analysis, T½ and CLint(mic) (μL/min/mg) values are calculated based on the first-order elimination kinetics, and the equations of first-order elimination kinetics are: […]

[6] = Liver microsomal stability test, mouse; type: in vitro ADME; settings: Mouse liver microsomes; for CLint scaled / half-life: 0.5 mg/mL protein, 37° C., NADPH
Protocol: as §11

[7] = Pharmacokinetic test in SD rats, single oral administration; type: in vivo; settings: SD, rat, plasma, po, 10 mg/kg, single oral administration 10 mg/kg, test compound mixed with F901318, plasma
Protocol: Pharmacokinetic study is performed on SD rats receiving single oral administration of each test compound mixed with F901318 (10 mg/kg, 3 rats per group). Test compounds and F901318 are dissolved with […]+10% solutol+85% saline, vortexed for 1-2 mins and ultra-sonicated for 5-10 mins to form a colorless clear drug solution. The animals are fasted overnight before oral administration, and resumed feeding 4 hours after administration. After oral administration, pharmacokinetic samples are collected from orbital blood of SD rats at 0.083 h, 0.25 h, 0.5 h, 1 h, 2 h, 4 h, 6 h, 8 h, and 24 h, and three whole blood samples are collected at each time point in a volume of 0.2-0.3 mL. Blood samples are placed on ice immediately after collected, and the plasma is separated by centrifugation within 15 min (centrifugation conditions: 8000 rpm, 1 min, and at room temperature).
The collected plasma is stored at −20° C. prior to analysis. Transfer 20 μL of plasma sample into an 0.5 mL EP tube, add 200 μL of working internal standard solution (blank group is without internal standard, using the same volume of solvent instead), vortex and mix for 3 min centrifuge at 13500 rpm for 10 min, take 100 μL of supernatant and analyze with LC-MS/MS.

| Structure (SMILES) | MIC [1] | MIC [2] | MIC [3] | MIC [4] | CLint scaled [5] | half-life [5] | Remaining, (T = 60 min) [5] | CLint scaled [6] | half-life [6] | Remaining, (T = 60 min) [6] | AUC ([7]; read-out: AUC) | Cmax ([7]; read-out: Cmax) | Tmax ([7]; read-out: Tmax) | half-life ([7]; read-out: T½ (converted)) |
| --- | --- | --- | --- | --- | --- | --- | --- | --- | --- | --- | --- | --- | --- | --- |
| Cc1cc(-c2ccccc2)c(C(=O)C(=O)Nc2ccc3c(c2)CCC2CN(c4ncc(F)cn4)CCN32)n1C (centres unmarked) [Example 32, 2-(1,5-dimethyl-3-phenyl-1H-pyrrol-2-yl)-N-(3-(5-fluoropyrimidin-2-yl)-2,3,4,4a,5,6-hexahydro-1H-pyrazino [1,2-a]quinolin-8-yl)-2-oxoacetamide] | 0.008 µg/mL (≈ 0.0152 µM) | 0.03 µg/mL (≈ 0.0572 µM) | 0.016 µg/mL (≈ 0.0305 µM) | 0.016 µg/mL (≈ 0.0305 µM) | 56.4 mL/min/kg | 22.1 min | 26.6% | 89.8 mL/min/kg | 27.8 min | 26.2% |  |  |  |  |
| Cc1cc(-c2ccccc2)c(C(=O)C(=O)Nc2ccc3c(c2)C[C@@H]2CN(c4ncc(F)cn4)CCN32)n1C [Example 34, (R)-2-(1,5-dimethyl-3-phenyl-1H-pyrrol-2-yl)-N-(2-(5-fluoropyrimidin-2-yl)-1,2,3,4,10,10a-hexahydropyrazino [1,2-a]indol-8-yl)-2-oxoacetamide] | 0.016 µg/mL (≈ 0.0313 µM) | 0.03 µg/mL (≈ 0.0588 µM) | 0.016 µg/mL (≈ 0.0313 µM) | 0.008 µg/mL (≈ 0.0157 µM) | 31.3 mL/min/kg | 39.9 min | 34.5% | 45.9 mL/min/kg | 54.4 min | 48.5% |  |  |  |  |
| Cc1cc(-c2ccccc2)c(C(=O)C(=O)Nc2cc(F)c3c(c2)OCC2CN(c4ncc(F)cn4)CCN32)n1C (centres unmarked) [Example 4] | 0.03 µg/mL (≈ 0.0551 µM) | 0.016 µg/mL (≈ 0.0294 µM) | 0.016 µg/mL (≈ 0.0294 µM) | 0.008 µg/mL (≈ 0.0147 µM) | 66.4 mL/min/kg | 18.8 min | 10.5% | 114 mL/min/kg | 21.8 min | 14.3% |  |  |  |  |
| Cc1cc(-c2ccccc2)c(C(=O)C(=O)Nc2ccc3c(c2)OCC2CN(c4ncc(F)cn4)CCN32)n1C (centres unmarked) [Example 3, 2-(1,5-dimethyl-3-phenyl-1H-pyrrol-2-yl)-N-(3-(5-fluoropyrimidin-2-yl)-1,2,3,4,4a,5-hexahydrobenzo[b]pyrazino[1,2-d][1,4]oxazin-8-yl)-2-oxoacetamide] | 0.125 µg/mL (≈ 0.237 µM) | 0.016 µg/mL (≈ 0.0304 µM) | 0.008 µg/mL (≈ 0.0152 µM) | 0.008 µg/mL (≈ 0.0152 µM) |  |  |  |  |  |  | 18700 ng·h/mL | 1420 ng/mL | 55 min | 321 min |
